According to PMC9816206 (Archives of Toxicology, 2022):

Assays:
[1] = test system: cell cycle regulation and DNA damage repair; conditions: transcriptomics approach; ref Abdelfatah et al. [2022]; cited from earlier work
MRP2 efflux transporter = molecular target: T1, MRP2 efflux transporter (Homo sapiens, UniProt Q92887); assay: MRP2 efflux transporter activity, intracellular calcein fluorescence retention; format: cell-based; conditions: HepG2 cells; calcein substrate; benzbromarone 10 µM; data not shown
T1 construct: endogenous in cells; host or cells: HepG2

[2] = test system: HeLa H2B-GFP cells co-cultured with HepG2 cells; assay: Micronucleus assay in co-culture after pretreatment with inhibitors of metabolic enzymes and efflux transporters; conditions: then Las 10 µM, Rid 100 µM, vs no pretreatment
Procedure: Since the analysis was limited to HeLa H2B-GFP cells in these experiments, cytochalasin B (at final concentration 3 µg/ml) exposure was 20 h.
Transmembrane transporters may enhance or decrease PA-mediated effects. […] The idea was that metabolites formed in hepatocytes may not reach HeLa H2B-GFP cells to the same extent. […] Then, the co-culture was exposed to PAs for 28 h, followed by 3 µg/ml cytochalasin B for 20 h.

HSEC = conditions: PAs metabolized by HepaRG human hepatocyte cells in Transwell co-culture; ref Lu et al. [2019]; cited from earlier work
[3] = test system: HeLa H2B-GFP cells co-cultured with HepG2 cells; assay: Analysis of mitotic figures, HeLa H2B-GFP cells of the co-culture; format: cell-based, human; conditions: for mitotic index in co-culture / arrest in metaphase of mitosis (detectable as elevated mitotic index): 28 h, Las 10 µM, Rid 100 µM, Ep 160 µM; for mitotic index in co-culture: vs DMSO solvent control; for arrest in metaphase of mitosis (detectable as elevated mitotic index): vincristine 10 ng/ml (positive control)
Procedure: (§1) The characterization of mitotic cells in fixed cell preparations was performed as described in Baudoin and Cimini [(2018]). […] Thereafter, cells were harvested and the microscopic slides prepared as described for micronucleus analysis. The mitotic index (MI; % cells in mitosis) was assessed by counting and adding up the number of cells in the mitotic stages prophase, metaphase, anaphase and telophase in 1000 cells.
(§2) Disturbed mitoses were defined as mitotic figures deviating from the typical appearance of mitoses and were assessed in 300 mitotic cells per slide. We classified the mitotic disturbances into the following categories (Figs. 2, 3):
(§3) Metaphase: no metaphase plate arrangement, non-congression of individual chromosomes to the metaphase plate, multipolar (tripolar and more than tripolar) arrangement of chromosomes and elongated chromosomes/chromatids.
(§4) Anaphase: bridges, lagging chromosome(s), combination of bridges and lagging chromosome, and multipolar (tripolar and more than tripolar) arrangement of chromosomes.
(§5) Telophase: same analysis as for anaphase cells.
(§6) If a cell harboured more than one type of disturbance, it was added to each category (e.g. multipolar, lagging chromosome(s) and bridges).

HeLa H2B-GFP cells [4] = assay: Cytokinesis-block micronucleus (CBMN) assay, HeLa H2B-GFP cells cultured alone; format: cell-based, human; conditions: lasiocarpine 10 µM, riddelliine 100 µM, europine 320 µM; 28 h; vs solvent control (DMSO); n = 3
Procedure: (§7) The study of genomic damage was performed in a six-well plate in which one well consisted of only HepG2 cells, one well of only HeLa H2B-GFP cells and further wells containing both cell types in co-culture. To achieve this, 190, 000 of HeLa H2B-GFP cells per 3ml, 150,000 of HepG2 cells per 3ml and 40,000 HeLa H2B-GFP plus 150,000 HepG2 for the co-culture per 3ml were seeded and incubated overnight. As culture medium, the HepG2 cell medium was used for all cells. […] At this point, slides were coded and for each test sample micronuclei were scored in 1000 binucleated HeLa H2B-GFP cells in the co-culture and HeLa H2B-GFP cells, and in 1000 binucleated HepG2 cells in the HepG2 cell culture, at 400-fold magnification with an Eclipse 55i fluorescence microscope using a fluorescein isothiocyanate (FITC) filter (Nikon GmbH, Japan). The numbers of mononucleated cells (MN), binucleated cells (BN), trinucleated cells (TriN), and tetranucleated cells (TetraN) in 1000 cells were also scored. The cytokinesis-block proliferation index (CBPI) was calculated from that as a criterion for determining the cytotoxic effect using the following formula: CBPI=1×MN+2×BN+3×TriN+4×TetraN/MN+BN+TriN+TetraN.

HepG2 cells [5] = assay: Cytokinesis-block micronucleus (CBMN) assay, HepG2 cells cultured alone; format: cell-based, human; conditions: lasiocarpine 10 µM, riddelliine 100 µM, europine 320 µM; 28 h; vs solvent control (DMSO); n = 3
Procedure: as §7

[6] = test system: HeLa H2B-GFP cells co-cultured with HepG2 cells; assay: Cytokinesis-block micronucleus (CBMN) assay, HeLa H2B-GFP cells scored in co-culture with HepG2; format: cell-based, human; conditions: lasiocarpine 10 µM, riddelliine 100 µM, europine 320 µM; 28 h; vs solvent control (DMSO); n = 3
Procedure: as §7

HeLa H2B-GFP cells [7] = assay: Analysis of mitotic figures, HeLa H2B-GFP cells cultured alone; format: cell-based, human; conditions: 28 h; Las 10 µM, Rid 100 µM, Ep 160 µM; vs DMSO solvent control
Procedure: as §1, §2, §3, §4, §5, §6

HepG2 cells [8] = assay: Analysis of mitotic figures, HepG2 cells cultured alone; format: cell-based, human; conditions: 28 h; Las 10 µM, Rid 100 µM, Ep 160 µM; vs DMSO solvent control
Procedure: as §1, §2, §3, §4, §5, §6

DNA [9] = test system: DNA; design: method as in Hadi et al. [2021]; conditions: ref Hadi et al. [2021]; cited from earlier work
V79 hamster cells = conditions: metabolically incompetent V79 cells with or without human CYP450-3A4; ref Ebmeyer et al. [(2019]); cited from earlier work
DNA [10] = test system: DNA; design: method as in Hincks et al. [1991]; conditions: ref Hincks et al. [1991]; cited from earlier work

T1 sequence (Q92887 whole entry): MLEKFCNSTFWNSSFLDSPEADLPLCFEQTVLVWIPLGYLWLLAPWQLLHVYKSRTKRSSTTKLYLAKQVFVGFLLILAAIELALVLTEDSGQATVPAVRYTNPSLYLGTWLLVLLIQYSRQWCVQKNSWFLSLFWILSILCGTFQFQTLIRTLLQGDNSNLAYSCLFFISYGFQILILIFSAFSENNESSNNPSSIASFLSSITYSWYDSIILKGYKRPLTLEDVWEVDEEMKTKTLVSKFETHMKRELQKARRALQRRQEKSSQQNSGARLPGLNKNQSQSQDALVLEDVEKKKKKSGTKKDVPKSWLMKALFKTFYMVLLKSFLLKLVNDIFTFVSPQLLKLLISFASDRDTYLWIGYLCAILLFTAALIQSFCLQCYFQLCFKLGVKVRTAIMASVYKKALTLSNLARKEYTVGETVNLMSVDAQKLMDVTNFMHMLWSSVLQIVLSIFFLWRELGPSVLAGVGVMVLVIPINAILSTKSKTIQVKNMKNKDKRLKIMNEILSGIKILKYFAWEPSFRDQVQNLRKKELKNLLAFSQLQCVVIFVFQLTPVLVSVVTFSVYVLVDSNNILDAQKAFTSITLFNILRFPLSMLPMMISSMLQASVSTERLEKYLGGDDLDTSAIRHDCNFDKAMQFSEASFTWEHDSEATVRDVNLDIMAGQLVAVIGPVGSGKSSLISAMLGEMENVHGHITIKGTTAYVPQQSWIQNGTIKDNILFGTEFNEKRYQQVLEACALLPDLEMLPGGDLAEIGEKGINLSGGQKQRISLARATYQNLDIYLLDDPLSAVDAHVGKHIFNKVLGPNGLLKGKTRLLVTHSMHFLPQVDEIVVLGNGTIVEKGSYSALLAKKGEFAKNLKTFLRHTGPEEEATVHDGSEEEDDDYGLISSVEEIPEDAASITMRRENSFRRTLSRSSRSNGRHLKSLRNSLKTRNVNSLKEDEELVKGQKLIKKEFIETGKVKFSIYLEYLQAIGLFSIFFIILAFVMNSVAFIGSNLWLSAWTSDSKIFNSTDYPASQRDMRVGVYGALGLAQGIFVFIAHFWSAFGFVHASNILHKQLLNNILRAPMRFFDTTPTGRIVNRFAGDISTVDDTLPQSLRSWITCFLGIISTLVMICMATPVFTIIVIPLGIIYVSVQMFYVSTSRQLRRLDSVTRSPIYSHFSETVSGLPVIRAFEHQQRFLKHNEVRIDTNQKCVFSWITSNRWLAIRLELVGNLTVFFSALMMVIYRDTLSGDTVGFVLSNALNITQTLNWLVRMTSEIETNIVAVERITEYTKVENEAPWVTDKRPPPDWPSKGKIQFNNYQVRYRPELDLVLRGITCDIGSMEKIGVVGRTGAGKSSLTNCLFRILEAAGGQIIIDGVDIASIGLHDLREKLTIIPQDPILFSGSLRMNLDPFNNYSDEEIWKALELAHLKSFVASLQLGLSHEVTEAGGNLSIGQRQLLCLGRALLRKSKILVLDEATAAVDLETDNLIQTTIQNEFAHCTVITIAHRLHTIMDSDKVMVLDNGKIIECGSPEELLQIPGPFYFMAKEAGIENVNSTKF

SMILES: CC(C)[C@](O)(C(=O)OCC1=CCN2CC[C@@H](O)[C@@H]12)[C@@H](C)O (stereo in doubt) [lycopsamine]
- interference with cell cycle regulation and DNA damage repair [1]: interfered with cell cycle regulation and DNA damage repair

SMILES: CCc1oc2ccccc2c1C(=O)c1cc(Br)c(O)c(Br)c1 [benzbromarone]
- activity of MRP2 efflux transporter (calcein fluorescence retention) (MRP2 efflux transporter): significantly reduced
- lasiocarpine-, riddelliine- and europine-induced micronucleus formation in HeLa H2B-GFP cells after efflux transporter inhibitor pretreatment ([2]; verapamil 50 µM, benzbromarone 10 µM or both, 24 h pretreatment, Ep 160 µM for 28 h): significantly reduced

SMILES: C=C/C1=C/[C@H](C)[C@](C)(OC(C)=O)C(=O)OC/C2=C/CN(C)CC[C@@H](OC1=O)C2=O [clivorine]
- cytotoxicity in HSEC (HSEC): concentration-dependent cytotoxicity

SMILES: C/C=C(/C)C(=O)O[C@@H]1CCN2CC=C(COC(=O)[C@@](O)([C@H](C)O)C(C)(C)O)[C@H]12 [echimidine]
- interference with cell cycle regulation and DNA damage repair [1]: interfered with cell cycle regulation and DNA damage repair

SMILES: COC(C)C(O)(C(=O)OCC1=CCN2CCC(O)C12)C(C)(C)O (centres unmarked) [europine]
- mitotic index in co-culture [3]: significantly decreased
- ana-/telophase bridges ([3]; in 300 mitotic cells, Ep 160 µM compared with Las 10 µM and Rid 100 µM, concentrations causing a similar number of micronuclei): less ana-/telophase bridges than the two diesters
- arrest in metaphase of mitosis (detectable as elevated mitotic index) [3]: not
- micronucleus formation in HeLa H2B-GFP cells cultured alone (HeLa H2B-GFP cells [4]): not if cultured alone
- micronucleus induction in HepG2 cells cultured alone (HepG2 cells [5]): induced micronuclei
- micronucleus formation in HeLa H2B-GFP cells in the co-culture [6]: induced micronucleus formation significantly
- mitotic index in HeLa H2B-GFP cells cultured alone (HeLa H2B-GFP cells [7]): no change
- mitotic index in HepG2 cells (HepG2 cells [8]): significantly decreased
- induction of DNA cross-links (DNA [9]): did not

SMILES: CC(=O)N1CCN(c2ccc(OCC3COC(Cn4ccnc4)(c4ccc(Cl)cc4Cl)O3)cc2)CC1 (centres unmarked) [ketoconazole]
- lasiocarpine-, riddelliine- and europine-induced micronucleus formation after CYP450-3A4 inhibitor pretreatment ([2]; ketoconazole 1 µM 24 h pretreatment, Ep 320 µM for 28 h): significantly reduced

SMILES: C/C=C(/C)C(=O)O[C@H]1CCN2CC=C(COC(=O)[C@@](O)([C@H](C)OC)C(C)(C)O)[C@H]12 [lasiocarpine]
- interference with cell cycle regulation and DNA damage repair [1]: interfered with cell cycle regulation and DNA damage repair
- genotoxicity in V79 hamster cells (V79 hamster cells): only genotoxic in metabolically incompetent V79 hamster cells if they had been genetically engineered to harbour human CYP450-3A4

SMILES: C[C@H]1C(=O)O[C@@H]2CCN3CC=C(COC(=O)[C@](C)(O)[C@]1(C)O)[C@H]23 [monocrotaline]
- interference with cell cycle regulation and DNA damage repair [1]: interfered with cell cycle regulation and DNA damage repair
- cytotoxicity in HSEC (HSEC): concentration-dependent cytotoxicity

SMILES: C=C1C/C(=C/C)C(=O)O[C@@H]2CCN3CC=C(COC(=O)[C@@]1(O)CO)[C@H]23 [riddelliine]
- interference with cell cycle regulation and DNA damage repair [1]: interfered with cell cycle regulation and DNA damage repair
- DNA cross-linker potency (DNA [10]): more potent DNA cross-linker than heliosupine
- mitotic index in co-culture [3]: did not cause significant alterations
- arrest in metaphase of mitosis (detectable as elevated mitotic index) [3]: not
- micronucleus formation in HeLa H2B-GFP cells cultured alone (HeLa H2B-GFP cells [4]): not if cultured alone
- micronucleus induction in HepG2 cells cultured alone (HepG2 cells [5]): induced micronuclei
- micronucleus formation in HeLa H2B-GFP cells in the co-culture [6]: induced micronucleus formation significantly
- mitotic index in HeLa H2B-GFP cells cultured alone (HeLa H2B-GFP cells [7]): did not cause significant alterations
- mitotic index in HepG2 cells (HepG2 cells [8]): did not cause significant alterations

SMILES: CC[C@]1(O)C[C@H]2CN(CCc3c([nH]c4ccccc34)[C@@](C(=O)OC)(c3cc4c(cc3OC)N(C=O)[C@H]3[C@@](O)(C(=O)OC)[C@H](OC(C)=O)[C@]5(CC)C=CCN6CC[C@]43[C@@H]65)C2)C1 [vincristine, reference compound]
- arrest in metaphase of mitosis (detectable as elevated mitotic index) [3]: arrest in metaphase of mitosis
